Data on three compounds can be found in patent US10323007B1, “N2N N4-disubstituted quinazoline-2,4-diamines and uses thereof” (University of South Florida, priority 2016, dated 2019).

The subject of one data set is A. baumannii 1403. As to the kind of experiment: MIC assay, strain 1403. The following applies: Acinetobacter baumannii; strain 1403; Tables 1, 3, 4, 5 and footnotes; read-out: 1403 MIC. In kind it is cell-based, Acinetobacter baumannii. The procedure: (§1) MIC and MBC assays were performed in this study as documented by us previously.^17,23,24,25 The A. baumannii strains used are detailed in Table 7.

Data set [1] relates to A. baumannii 1646. As to the kind of experiment: MIC assay, strain 1646. The following applies: Acinetobacter baumannii; strain 1646; Tables 1, 3, 4, 5 and footnotes; read-out: 1646 MIC. Format: cell-based, Acinetobacter baumannii. The protocol: as §1
The subject of another data set is A. baumannii 1649. Description: MIC assay, strain 1649. The following applies: Acinetobacter baumannii; strain 1649; Tables 1, 3, 4, 5 and footnotes; read-out: 1649 MIC. Format: cell-based, Acinetobacter baumannii. The procedure:
as §1

The subject of another data set is A. baumannii 1650. As to the kind of experiment: MIC assay, strain 1650. In kind it is cell-based, Acinetobacter baumannii. The following applies: Acinetobacter baumannii; strain 1650; Tables 1, 3, 4, 5 and footnotes; read-out: 1650 MIC. The procedure: as §1
A further data set concerns A. baumannii 1651. As to the kind of experiment: MIC assay, strain 1651. In kind it is cell-based, Acinetobacter baumannii. The following applies: Acinetobacter baumannii; strain 1651; Tables 1, 3, 4, 5 and footnotes; read-out: 1651 MIC. The procedure: as §1
The next data set has as its system A. baumannii 1652. Description: MIC assay, strain 1652. In kind it is cell-based, Acinetobacter baumannii. The following applies: Acinetobacter baumannii; strain 1652; Tables 1, 3, 4, 5 and footnotes; read-out: 1652 MIC. The protocol: as §1
The subject of data set [2] is A. baumannii 1646. Description: minimal bactericidal concentration (MBC) assay, strain 1646. Format: cell-based, Acinetobacter baumannii. The following applies: isolate 1646. In a few lines:
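MBC90 determined against A. baumannii clinical isolates to distinguish bactericidal from bacteriostatic activity, following the group's previously published MIC/MBC protocol.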

For data set [3], the system named is A. baumannii dihydrofolate reductase (DHFR) enzyme. Description: tetrahydrofolic acid in vitro rescue assay. Format: cell-based. The following applies: tetrahydrofolic acid 0-225 μM; 24 hours incubation.
Experimental: To evaluate the effect quinazolines have on DHFR reduction of dihydrofolic acid, a tetrahydrofolic acid assay was performed as described by us previously.^17 A. baumannii strain 1403 was grown overnight in LB, and then diluted 1:1000 into fresh media. These cultures were then seeded into a sterile 96-well plate with tetrahydrofolic acid added at concentrations ranging from 0 to 225 μM. […] MICs were determined and used to assess whether the addition of tetrahydrofolic acid rescued A. baumannii growth from quinazoline inhibition. Assays were repeated in triplicate, alongside trimethoprim and sulfamethoxazole controls.
Data set [4] concerns A. baumannii 1646. Description: murine model of lethal peritonitis. In kind it is in vivo, mice. The following applies: 30 mg kg^-1 intraperitoneal, one hour post challenge, 5 days. The procedure: As a final assessment, we used a murine model of lethal A. baumannii infection to determine the efficacy of quinazolines in vivo. This was performed using frontrunner 5, which had the most promising properties from all of our biological testing. Accordingly, mice were inoculated with a lethal dose of A. baumannii via intraperitoneal injection on the right side of the abdomen. One hour post challenge, mice were treated with an intraperitoneal injection of 2 mg kg^−1 of frontrunner 5 on the left side of the abdomen. As a control, we also performed similar testing using 30 mg kg^−1 of tigecycline, which we already know our test strain to be susceptible to in vitro.
Characteristics of pre-moribund state include: hunched posture, rapid, shallow and/or labored breathing, ruffled fur, lethargy, failure to respond to stimuli, soiled anogenital area, paralysis, paresis, head tilt, circling, vocalizations, non-purposeful movements, and/or were unable to eat or drink. Those mice reaching this state prior to the completion of the 5-day infection period were euthanized. The number of mice surviving between control and treatment groups was compared and analyzed for statistical significance using a log-rank (Mantel-Cox) test.

In general, MIC refers to the lowest concentration found to suppress growth.

In brackets after ≈: the same amount, converted by molar mass. A value given as a limit tells only on which side of the number the result lay.

Experimental for human red blood cells: A hemolysis assay was performed using whole human blood (Bioreclamation), as described previously.^24 Briefly, human red blood cells (hRBCs) were resuspended in 20% v/v 1×HA buffer (4.25 mL 10% NaCl; 1 mL CaCl2) in 50 mL sterile water), before lead compounds were added at 2 μM, 10 μM and 20 μM, in a final volume of 100 μL. Cells were incubated for 15 minutes at 37° C. before being centrifuged at 5,500 g for 1 minute to pellet non-lysed hRBCs. The supernatant was removed, added to a 96-well Microtiter plate and the OD543 read using a BioTek Synergy2 plate reader. The negative control was vehicle only (DMSO), and the positive control was 1% triton X-100.

In the case of `CNc1nc(NCc2ccccc2)nc2ccc(C(C)C)cc12` [Compound 25, N^2-Benzyl-6-isopropyl-N^4-methylquinazoline-2,4-diamine], the MIC with A. baumannii 1403 was over 50 µM; with A. baumannii 1646 [1] it was 25 µM (≈ 7.66 µg/mL); in the data set on A. baumannii 1649, 35 µM (≈ 10.7 µg/mL); with A. baumannii 1650, over 50 µM; in the data set with A. baumannii 1651, 35 µM (≈ 10.7 µg/mL); in the data set with A. baumannii 1652 it was over 50 µM. Moreover, the “concentration giving complete eradication of bacterial growth” value with A. baumannii 1646 [2] stood at 5 µM. For the same compound, in data set [3], the “THF concentration sufficient to rescue bacterial growth” value came to 10 µM.
In the case of `CN(C)c1cc(NC(=O)CNC(C)(C)C)c(O)c2c1C[C@H]1C[C@H]3[C@H](N(C)C)C(O)=C(C(N)=O)C(=O)[C@@]3(O)C(O)=C1C2=O` [tigecycline, reference compound], in the data set with A. baumannii 1646 [4], the “survival rate of infected animals” value is reported as 66%.
On to Triton X-100, for which the “lysis of human red blood cells” value with human red blood cells was 100%.
